Measured values: US20200289473A1, “METHODS OF TREATING NEURODEGENERATION” (The J David Gladstone Institutes a testamentary trust …, priority 2017, published 2020)
“Also recorded” adds a separate entry of the source.

Experiments:
[1] = system: fibrin-induced microglia activation; test: fibrin-induced microglia activation assay; type: cell-based; settings: dose-dependent, fibrin stimulus, read-out: IC50, inhibition of fibrin-induced microglia activation
Excerpt: (§1) To identify inhibitors of microglia activation, an assay as described in U.S. Ser. No. 15/109,163, was used to screen a library of 1907 clinical drugs and bioactive compounds. The criteria for hits were ≥50% inhibition of activation and ≤3% cell death to exclude toxic compounds. This represents a three standard deviation difference from the mean value of negative control activated cells. 128 compounds were selected from the screen that satisfied these criteria for dose response curves. Acivicin, a γ-glutamyl transpeptidase inhibitor, was identified among the compounds and was selected for additional characterization as it was an unexpected target for microglial activation and had not been previously linked with neurological diseases.
(§2) Throughout assay development, we consistently observed multiple-fold proliferation (increase in cell count) of microglia upon activation. Proliferation of fibrin-activated microglia cells was inhibited by treatment with acivicin. […] We also examined the effect of acivicin on microglia activation by other immunostimulatory agents.

[2] = system: LPS-induced microglia activation; test: LPS-induced microglia activation assay; type: cell-based; settings: LPS stimulus; comparable to fibrin (FIG. 4)
Excerpt: as §1, §2

microglia = test: cell toxicity in the microglia activation assay; type: cell-based; settings: up to highest assay concentration of 20 μM
Excerpt: as §1, §2

[3] = system: fibrin-activated microglia cells; test: proliferation of fibrin-activated microglia cells; type: cell-based; settings: increase in cell count upon activation; dose-dependent (FIG. 3)
Excerpt: as §2

MOG35-55 induced EAE = test: chronic EAE model (MOG35-55), prophylactic treatment, clinical score; type: in vivo; settings: MOG35-55 mice; daily i.p. starting 0 day after immunization; vs saline
Excerpt: (§3) To further study the ability of acivicin to inhibit microglial activation, acivicin was next studies for its ability to suppress disease progression and ameliorate the disease symptoms in the EAE animal models of multiple sclerosis. Two models of EAE were used: (1) mice immunized with MOG35-55 to induce chronic disease and (2) mice immunized with PLP139-151 to induce relapsing-remitting EAE.
First, to examine the ability of acivicin to prevent disease symptoms and/or progression to multiple sclerosis in a chronic EAE model, acivicin or saline were administered prophylactically to mice immunized with MOG35-55 to induce chronic disease. The mice were immunized with MOG35-55 to induce chronic disease. Acivicin or saline was administered daily by intraperitoneal (i.p.) injection, starting 0 day after immunization (n=15 saline, n=14 acivicin).

PLP139-151 induced EAE = test: relapsing-remitting EAE model (PLP139-151), therapeutic treatment, clinical score; type: in vivo; settings: PLP139-151 mice; daily i.p. starting at peak EAE; vs saline
Excerpt: as §3
Next, to assess the ability to therapeutic efficacy of acivicin to treat disease symptoms and/or progression in relapsing-remitting (PLP139-151) EAE model, mice were administered either acivicin or saline injections daily by intraperitoneal (i.p.) injection starting at the peak EAE phase of the EAE PLP139-151. (n=6 saline, and n=7 acivicin). Acivicin decreased the clinical severity of EAE during remission phases (FIG. 7).

[4] = system: Cx3cr1+ microglia and Ccr2+ monocytes; test: microglial accumulation and monocyte infiltration in Ccr2RFP/+Cx3cr1GFP/+ mice with MOG35-55 EAE; type: in vivo; settings: prophylactic injection
Excerpt: CNS-resident innate immune cell microglia and CNS-infiltrating inflammatory monocytes are essential for the inflammatory progression of EAE. Yamasaki, R. et al. J Exp Med 211, 1533-1549 (2014); Ajami, B. et al, Nature neuroscience 14, 1142-1149 (2011). To determine whether blocking the γ-glutamyl transpeptidase activity with acivicin inhibits microglial activation and infiltration of monocytes/macrophages in vivo in the EAE models, Ccr2^RFP/+Cx3cr1^GFP/+ mice in which resident microglia are GFP-positive and inflammatory monocytes are RFP-positive were used. Ryu, J. K. et al. Nat Commun 6, 8164 (2015). EAE was induced with MOG35-55, and mice were prophylactically injected with acivicin.

[5] = system: myelin damage and neuronal injury in EAE; test: MBP and SMI-32 immunohistochemistry in EAE; type: in vivo; settings: after EAE induction; vs saline-treated mice
Excerpt: To investigate whether acivicin can protect from myelin damage and neurodegeneration in EAE, MBP and SMI-32 immunohistochemistry was used to assess myelin damage and neuronal injury.

[6] = system: pro-inflammatory gene expression; test: real-time PCR of pro-inflammatory genes in spinal cords at the peak of EAE; type: in vivo, mice; settings: spinal cord, peak of MOG35-55 EAE; vs saline
Method: To gain insight into the anti-inflammatory mechanism by which acivicin regulates the progression of inflammation after EAE, real-time PCR analysis was used. Real-time PCR analysis of expression of pro-inflammatory genes in the spinal cords of MOG35-55 treated mice was performed at the peak of EAE in the saline-treated and acivicin-treated mice (n=7 saline and n=7 acivicin).

Compound: N[C@H](C(=O)O)[C@@H]1CC(Cl)=NO1 [acivicin]
- IC50 [1]: 2000 nM
- inhibition of microglia activation by LPS (potency) [2]: comparable low μM potency
- toxic cell death / cell toxicity (microglia): no apparent cell toxicity; also recorded: not evident
- proliferation of fibrin-activated microglia cells [3]: inhibited
- acute phase of EAE (clinical score) (MOG35-55 induced EAE): completely inhibited
- clinical severity of EAE during remission phases (PLP139-151 induced EAE): decreased
- accumulation of Cx3cr1+ microglia (% area GFP in spinal cord) [4]: significantly decreased
- infiltration of Ccr2+ monocytes (% area RFP) [4]: significantly decreased
- axonal injury (SMI-32 immunohistochemistry) [5]: dramatic reduction
- myelin damage (MBP immunohistochemistry) [5]: dramatic reduction
- EAE-induced transcription of Ccl5 [6]: inhibits
- EAE-induced transcription of Cxcl10 [6]: inhibits
- EAE-induced transcription of IL-1b [6]: inhibits
- EAE-induced transcription of IL-12p40 [6]: inhibits
- EAE-induced transcription of iNOS [6]: inhibits
